Test results published in ChEMBL document CHEMBL3885881, “DrugMatrix”.

Organism: Rattus norvegicus
Test: DrugMatrix - Regimen: Daily Repeat
Assay type: toxicity, organism-based, Sprague-Dawley
Set-up: regimen Daily Repeat, gender Male, age 6-8 weeks
Conditions: in vivo, po, route oral GAVAGE, vehicle 100 % WATER; for ABSOLUTE BASOPHIL / ABSOLUTE EOSINOPHIL / ABSOLUTE LYMPHOCYTE / ABSOLUTE MONOCYTE / ABSOLUTE SEGMENTED NEUTROPHIL / BASOPHIL / EOSINOPHIL / ERYTHROCYTE COUNT / HEMATOCRIT / HEMOGLOBIN / LEUKOCYTE COUNT / LYMPHOCYTE / MEAN CORPUSCULAR HEMOGLOBIN / MEAN CORPUSCULAR HEMOGLOBIN CONCENTRATION / MEAN CORPUSCULAR VOLUME / MONOCYTE / NEUTROPHIL / NUCLEATED RED BLOOD CELLS / PLATELET COUNT: tissue Blood; for ALANINE AMINOTRANSFERASE / ALBUMIN / ALKALINE PHOSPHATASE / ASPARTATE AMINOTRANSFERASE / BLOOD UREA NITROGEN / CARBON DIOXIDE / CHLORIDE / CHOLESTEROL / CREATINE PHOSPHOKINASE / CREATININE / GLUCOSE / LACTATE DEHYDROGENASE / LIPASE / PHOSPHORUS / POTASSIUM / SODIUM / TOTAL BILIRUBIN / TOTAL PROTEIN / URIC ACID: tissue Plasma
[1] = 0.3 mg/kg, 120 h, dose level Low, time 5 day
[2] = 6 mg/kg, 72 h, dose level High, time 3 day
[3] = 6 mg/kg, 120 h, dose level High, time 5 day

Clc1cccc(Cl)c1N=C1NCCN1 [CLONIDINE]
ABSOLUTE BASOPHIL [1]: 0 CELLS/uL
ABSOLUTE EOSINOPHIL [1]: 0 CELLS/uL
ABSOLUTE LYMPHOCYTE [1]: 12125.33 CELLS/uL
ABSOLUTE MONOCYTE [1]: 52.33 CELLS/uL
ABSOLUTE SEGMENTED NEUTROPHIL [1]: 1322.33 CELLS/uL
BASOPHIL [1]: 0%
EOSINOPHIL [1]: 0%
ERYTHROCYTE COUNT [1]: 5.47 x10E6/uL
HEMATOCRIT [1]: 34.07%
HEMOGLOBIN [1]: 13.73 G/DL
LEUKOCYTE COUNT [1]: 13.5 x10E3/uL
LYMPHOCYTE [1]: 89.33%
MEAN CORPUSCULAR HEMOGLOBIN [1]: 25.13 pg
MEAN CORPUSCULAR HEMOGLOBIN CONCENTRATION [1]: 40.3 G/DL
MEAN CORPUSCULAR VOLUME [1]: 62.3 fL
MONOCYTE [1]: 0.33%
NEUTROPHIL [1]: 10.33%
NUCLEATED RED BLOOD CELLS [1]: 0 /100WBC
PLATELET COUNT [1]: 1266.67 x10E3/uL
ALANINE AMINOTRANSFERASE [1]: 49.67 u/L
ALBUMIN [1]: 4.07 G/DL
ALKALINE PHOSPHATASE [1]: 360 u/L
ASPARTATE AMINOTRANSFERASE [1]: 94 u/L
BLOOD UREA NITROGEN [1]: 19 mg/dL
CARBON DIOXIDE [1]: 27 mmol/L
CHLORIDE [1]: 100.67 MEQ/L
CHOLESTEROL [1]: 70 mg/dL
CREATINE PHOSPHOKINASE [1]: 371.67 u/L
CREATININE [1]: 0.17 mg/dL
GLUCOSE [1]: 134.33 mg/dL
LACTATE DEHYDROGENASE [1]: 289.33 u/L
LIPASE [1]: 9 u/L
PHOSPHORUS [1]: 11.17 mg/dL
POTASSIUM [1]: 6.28 MEQ/L
SODIUM [1]: 140.53 MEQ/L
TOTAL BILIRUBIN [1]: 0.1 mg/dL
TOTAL PROTEIN [1]: 5.57 G/DL
URIC ACID [1]: 1.57 mg/dL
ABSOLUTE BASOPHIL [2]: 0 CELLS/uL
ABSOLUTE EOSINOPHIL [2]: 0 CELLS/uL
ABSOLUTE LYMPHOCYTE [2]: 11339 CELLS/uL
ABSOLUTE MONOCYTE [2]: 767 CELLS/uL
ABSOLUTE SEGMENTED NEUTROPHIL [2]: 6827.33 CELLS/uL
BASOPHIL [2]: 0%
EOSINOPHIL [2]: 0%
ERYTHROCYTE COUNT [2]: 6.6 x10E6/uL
HEMATOCRIT [2]: 40.63%
HEMOGLOBIN [2]: 16.17 G/DL
LEUKOCYTE COUNT [2]: 18.93 x10E3/uL
LYMPHOCYTE [2]: 61.33%
MEAN CORPUSCULAR HEMOGLOBIN [2]: 24.47 pg
MEAN CORPUSCULAR HEMOGLOBIN CONCENTRATION [2]: 39.8 G/DL
MEAN CORPUSCULAR VOLUME [2]: 61.5 fL
MONOCYTE [2]: 4%
NEUTROPHIL [2]: 34.67%
NUCLEATED RED BLOOD CELLS [2]: 0 /100WBC
PLATELET COUNT [2]: 1516.67 x10E3/uL
ALANINE AMINOTRANSFERASE [2]: 61 u/L
ALBUMIN [2]: 3.93 G/DL
ALKALINE PHOSPHATASE [2]: 306.67 u/L
ASPARTATE AMINOTRANSFERASE [2]: 172.33 u/L
BLOOD UREA NITROGEN [2]: 58 mg/dL
CARBON DIOXIDE [2]: 23.33 mmol/L
CHLORIDE [2]: 96 MEQ/L
CHOLESTEROL [2]: 67.33 mg/dL
CREATINE PHOSPHOKINASE [2]: 987.33 u/L
CREATININE [2]: 0.52 mg/dL
GLUCOSE [2]: 154.33 mg/dL
LACTATE DEHYDROGENASE [2]: 310.33 u/L
LIPASE [2]: 8 u/L
PHOSPHORUS [2]: 12.97 mg/dL
POTASSIUM [2]: 6.5 MEQ/L
SODIUM [2]: 140.77 MEQ/L
TOTAL BILIRUBIN [2]: 0.27 mg/dL
TOTAL PROTEIN [2]: 6.13 G/DL
URIC ACID [2]: 2.17 mg/dL
ABSOLUTE BASOPHIL [3]: 0 CELLS/uL
ABSOLUTE EOSINOPHIL [3]: 46 CELLS/uL
ABSOLUTE LYMPHOCYTE [3]: 9488.67 CELLS/uL
ABSOLUTE MONOCYTE [3]: 118.67 CELLS/uL
ABSOLUTE SEGMENTED NEUTROPHIL [3]: 2180 CELLS/uL
BASOPHIL [3]: 0%
EOSINOPHIL [3]: 0.33%
ERYTHROCYTE COUNT [3]: 6.57 x10E6/uL
HEMATOCRIT [3]: 38.83%
HEMOGLOBIN [3]: 15.23 G/DL
LEUKOCYTE COUNT [3]: 11.83 x10E3/uL
LYMPHOCYTE [3]: 81.33%
MEAN CORPUSCULAR HEMOGLOBIN [3]: 23.2 pg
MEAN CORPUSCULAR HEMOGLOBIN CONCENTRATION [3]: 39.23 G/DL
MEAN CORPUSCULAR VOLUME [3]: 59.1 fL
MONOCYTE [3]: 1%
NEUTROPHIL [3]: 17.33%
NUCLEATED RED BLOOD CELLS [3]: 0 /100WBC
PLATELET COUNT [3]: 916 x10E3/uL
ALANINE AMINOTRANSFERASE [3]: 33.67 u/L
ALBUMIN [3]: 4.07 G/DL
ALKALINE PHOSPHATASE [3]: 207 u/L
ASPARTATE AMINOTRANSFERASE [3]: 74 u/L
BLOOD UREA NITROGEN [3]: 20.67 mg/dL
CARBON DIOXIDE [3]: 30.67 mmol/L
CHLORIDE [3]: 104 MEQ/L
CHOLESTEROL [3]: 62.67 mg/dL
CREATINE PHOSPHOKINASE [3]: 177 u/L
CREATININE [3]: 0.25 mg/dL
GLUCOSE [3]: 163 mg/dL
LACTATE DEHYDROGENASE [3]: 128 u/L
LIPASE [3]: 9 u/L
PHOSPHORUS [3]: 8.13 mg/dL
POTASSIUM [3]: 5.61 MEQ/L
SODIUM [3]: 148.9 MEQ/L
TOTAL BILIRUBIN [3]: 0.2 mg/dL
TOTAL PROTEIN [3]: 5.9 G/DL
URIC ACID [3]: 0.7 mg/dL
